Counter-ions that a name gives are not always drawn. A value given as a limit tells only on which side of the number the result lay.

From patent US9216991B2 (Ares Trading S.A., priority 2012, dated 2015) come the findings set out here.

The target in this assay is T1, IRAK4 (Homo sapiens, UniProt Q9NWZ3).
T1 construct: His (N); TEV cleavage site (N)
T1 sequence (Q9NWZ3 1-460): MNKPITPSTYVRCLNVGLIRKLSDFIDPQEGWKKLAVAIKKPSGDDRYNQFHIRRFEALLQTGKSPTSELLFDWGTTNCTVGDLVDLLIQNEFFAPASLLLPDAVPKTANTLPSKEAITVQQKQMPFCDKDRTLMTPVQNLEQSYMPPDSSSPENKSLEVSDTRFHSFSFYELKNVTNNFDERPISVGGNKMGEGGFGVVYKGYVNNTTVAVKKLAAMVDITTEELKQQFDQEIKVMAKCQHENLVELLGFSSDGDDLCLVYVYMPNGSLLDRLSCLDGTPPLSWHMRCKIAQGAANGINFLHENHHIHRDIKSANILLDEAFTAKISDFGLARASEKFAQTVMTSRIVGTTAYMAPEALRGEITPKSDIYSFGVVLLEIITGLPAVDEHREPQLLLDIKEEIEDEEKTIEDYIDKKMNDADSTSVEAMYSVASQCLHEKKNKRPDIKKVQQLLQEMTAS
Kind of assay: IRAK4 Enzymatic Assay. In kind it is biochemical. Particulars: His-TEV-IRAK4 20 ng/well, ATP 2 μM, STK1-biotin peptide 300 nM, 3 hours at 30° C., FlashPlate radioactivity. In a few lines:
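Recombinant His-TEV-tagged IRAK4 (20 ng/well) phosphorylates biotinylated STK1 peptide (300 nM) with 2 μM ATP plus [^33P]ATP, 3 h at 30 °C in pH 7.0 HEPES buffer with MgCl2 and MnCl2; compounds tested 20 μM to 1 nM. Reaction stopped with EDTA; incorporated radioactivity counted on streptavidin FlashPlates.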
Consider `CC(C)NC(=O)[C@H]1CC[C@H](n2cc(-c3cnc(-c4cccc(-c5cnn(C)c5)c4)nc3)cn2)CC1` [Example 174, 4-(4-{2-[3-(1-Methyl-1H-pyrazol-4-yl)-phenyl]-pyrimidin-5-yl}-pyrazol-1-yl)-cyclohexanecarboxylic acid isopropylamide], for which the half-maximal inhibitory concentration (IC50) (in general, the concentration needed to halve the response being measured) is 100 to 1000 nM. Then `Cn1cc(-c2cccc(-c3ncc(-c4cnn(CC(=O)NC5CCOCC5)c4)cn3)c2)cn1` [Example 54, 2-(4-{2-[3-(1-Methyl-1H-pyrazol-4-yl)-phenyl]-pyrimidin-5-yl}-pyrazol-1-yl)-N-(tetrahydro-pyran-4-yl)-acetamide], with 100 to 1000 nM. For `Cc1cc(-c2cccc(-c3ncc(-c4cnn([C@@H]5CCCS(=O)(=O)C5)c4)cn3)c2)cnn1` (single isomer, unassigned) [Example 241], the half-inhibitory concentration (IC50) lay in the range of 100 to 1000 nM. As to `Cn1cc(-c2cccc(-c3ncc(-c4cnn(C5CCN(C(=O)C6CC(=O)C6)CC5)c4)cn3)c2)cn1` [Example 117, 3-[4-(4-{2-[3-(1-Methyl-1H-pyrazol-4-yl)-phenyl]-pyrimidin-5-yl}-pyrazol-1-yl)-piperidine-1-carbonyl]-cyclobutanone], the IC50 fell in the range of 100 to 1000 nM. Then `CN1C[C@H]2CC1CN2C(=O)Cn1cc(-c2cnc(-c3cccc(-c4cnn(C)c4)c3)nc2)cn1` (stereo in doubt) [Example 148, 1-((1R,4R)-5-Methyl-2,5-diaza-bicyclo[2.2.1]hept-2-yl)-2-(4-{2-[3-(1-methyl-1H-pyrazol-4-yl)-phenyl]-pyrimidin-5-yl}-pyrazol-1-yl)-ethanone], with 1000 to 5000 nM. Consider `Cn1cc(-c2cccc(-c3ncc(-c4cnn(C5CCN(c6ccccc6F)CC5)c4)cn3)c2)cn1` [Example 175, 5-{1-[1-(2-Fluoro-phenyl)-piperidin-4-yl]-1H-pyrazol-4-yl}-2-[3-(1-methyl-1H-pyrazol-4-yl)-phenyl]-pyrimidine], for which the IC50 lay in the range of 100 to 1000 nM. Then `COc1ccc(CCn2cc(-c3cnc(-c4cccc(-c5cnn(C)c5)c4)nc3)cn2)cc1OC` [Example 96, 5-{1-[2-(3,4-Dimethoxy-phenyl)-ethyl]-1H-pyrazol-4-yl}-2-[3-(1-methyl-1H-pyrazol-4-yl)-phenyl]-pyrimidine], with 100 to 1000 nM; and `c1cc(-c2ccoc2)cc(-c2ncc(-c3cnn(C4CCNCC4)c3)cn2)c1` [Example 7, 2-(3-Furan-3-yl-phenyl)-5-(1-piperidin-4-yl-1H-pyrazol-4-yl)-pyrimidine Hydrochloride], with 100 to 1000 nM; and `Cn1cc(-c2cccc(-c3ncc(-c4cnn(CC5CCOC5)c4)cn3)c2)cn1` (stereo not shown) [Example 45, 2-[3-(1-Methyl-1H-pyrazol-4-yl)-phenyl]-5-[1-(tetrahydro-furan-3-ylmethyl)-1H-pyrazol-4-yl]-pyrimidine], with 100 to 1000 nM. Under `CCNC(=O)[C@H]1CC[C@H](n2cc(-c3cnc(-c4cccc(-c5cnn(C)c5)c4)nc3)cn2)CC1` [Example 197, Trans-4-(4-{2-[3-(1-Methyl-1H-pyrazol-4-yl)-phenyl]-pyrimidin-5-yl}-pyrazol-1-yl)-cyclohexanecarboxylic acid ethylamide] stands less than 100 nM; under `COCCC(=O)N[C@H]1CC[C@@H](n2cc(-c3cnc(-c4cccc(-c5cnn(C)c5)c4)nc3)cn2)CC1` [Example 166, Cis-3-Methoxy-N-[4-(4-{2-[3-(1-methyl-1H-pyrazol-4-yl)-phenyl]-pyrimidin-5-yl}-pyrazol-1-yl)-cyclohexyl]-propionamide], 100 to 1000 nM; under `CC1CN(C(=O)Cn2cc(-c3cnc(-c4cccc(-c5cnn(C)c5)c4)nc3)cn2)CCO1` (stereo not shown) [Example 80, 1-(2-Methyl-morpholin-4-yl)-2-(4-{2-[3-(1-methyl-1H-pyrazol-4-yl)-phenyl]-pyrimidin-5-yl}-pyrazol-1-yl)-ethanone], 100 to 1000 nM. Consider `CCOC1CC(N2CCC(n3cc(-c4cnc(-c5cccc(-c6cnn(C)c6)c5)nc4)cn3)CC2)C1(C)C` (stereo not shown) [Example 112, 5-{1-[1-(3-Ethoxy-2,2-dimethyl-cyclobutyl)-piperidin-4-yl]-1H-pyrazol-4-yl}-2-[3-(1-methyl-1H-pyrazol-4-yl)-phenyl]-pyrimidine], for which the IC50 lay in the range of 100 to 1000 nM.

`Cn1cc(-c2cccc(-c3ncc(-c4cnn(CCC(=O)N5CCCC5)c4)cn3)c2)cn1` [Example 84, 3-(4-{2-[3-(1-Methyl-1H-pyrazol-4-yl)-phenyl]-pyrimidin-5-yl}-pyrazol-1-yl)-1-pyrrolidin-1-yl-propan-1-one]: the IC50 is 1000 to 5000 nM. Turning to `Cn1cc(-c2cccc(-c3ncc(-c4cnn(C5CCS(=O)(=O)CC5)c4)cn3)c2)cn1` [Example 176, 5-[1-(1,1-Dioxo-hexahydro-1l6-thiopyran-4-yl)-1H-pyrazol-4-yl]-2-[3-(1-methyl-1H-pyrazol-4-yl)-phenyl]-pyrimidine], the IC50 lay within 100 to 1000 nM. Under `Cn1cc(-c2cccc(-c3ncc(-c4cnn([C@H]5CC[C@H](CO)CC5)c4)cn3)c2)cn1` [Example 238, Trans-[4-(4-{2-[3-(1-Methyl-1H-pyrazol-4-yl)-phenyl]-pyrimidin-5-yl}-pyrazol-1-yl)-cyclohexyl]-methanol] stands less than 100 nM. Then `CN(C)C(=O)C1CC2(C1)CC(n1cc(-c3cnc(-c4cccc(-c5cnn(C)c5)c4)nc3)cn1)C2` (stereo not shown) [Example 222, 6-(4-{2-[3-(1-Methyl-1H-pyrazol-4-yl)-phenyl]-pyrimidin-5-yl}-pyrazol-1-yl)-spiro[3.3]heptane-2-carboxylic acid dimethylamide], with 100 to 1000 nM; and `CN1CC2CC1CN2C(=O)[C@H]1CC[C@H](n2cc(-c3cnc(-c4cccc(-c5cnn(C)c5)c4)nc3)cn2)CC1` (stereo partly drawn) [Example 278, (5-Methyl-2,5-diaza-bicyclo[2.2.1]hept-2-yl)-trans-[4-(-4-{2-[3-(1-methyl-1H-pyrazol-4-yl)-phenyl]-pyrimidin-5-yl}-pyrazol-1-yl)-cyclohexyl]-methanone hydrobromide], with less than 100 nM; and `C[C@@H]1C[C@H](n2cc(-c3cnc(-c4cccc(-c5cnn(C)c5)c4)nc3)cn2)CCN1` [Example 243, 5-[1-((2R,4R)-2-Methyl-piperidin-4-yl)-1H-pyrazol-4-yl]-2-[3-(1-methyl-1H-pyrazol-4-yl)-phenyl]-pyrimidine formic acid], with 100 to 1000 nM. Under `Cn1cc(-c2cccc(-c3ncc(-c4cnn(CC(=O)N5C6CCC5CC(O)C6)c4)cn3)c2)cn1` (stereo not shown) [Example 127, 1-(3-Hydroxy-8-aza-bicyclo[3.2.1]oct-8-yl)-2-(4-{2-[3-(1-methyl-1H-pyrazol-4-yl)-phenyl]-pyrimidin-5-yl}-pyrazol-1-yl)-ethanone] stands 100 to 1000 nM; under `CC(=O)N1CC[C@H](n2cc(-c3cnc(-c4cccc(-c5cnn(C)c5)c4)nc3)cn2)C[C@@H]1C` [Example 248, 1-[(2S,4S)-2-Methyl-4-(4-{2-[3-(1-methyl-1H-pyrazol-4-yl)-phenyl]-pyrimidin-5-yl}-pyrazol-1-yl)-piperidin-1-yl]-ethanone], less than 100 nM; under `Cn1cc(-c2cccc(-c3ncc(-c4cnn([C@H]5CC[C@H](C(=O)N6C[C@H](O)[C@@H](O)C6)CC5)c4)cn3)c2)cn1` [Example 244, ((3S,4S)-3,4-Dihydroxy-pyrrolidin-1-yl)-[4-(4-{2-[3-(1-methyl-1H-pyrazol-4-yl)-phenyl]-pyrimidin-5-yl}-pyrazol-1-yl)-cyclohexyl]-methanone], less than 100 nM. As for `Cn1cc(-c2cccc(-c3ncc(-c4cnn(CCc5ccccn5)c4)cn3)c2)cn1` [Example 47, 2-[3-(1-Methyl-1H-pyrazol-4-yl)-phenyl]-5-[1-(2-pyridin-2-yl-ethyl)-1H-pyrazol-4-yl]-pyrimidine], the concentration for half-maximal inhibition (IC50) was 100 to 1000 nM.

`Cn1cc(-c2cccc(-c3ncc(-c4cnn(C5CCOC5=O)c4)cn3)c2)cn1` (stereo not shown) [Example 129, 3-(4-{2-[3-(1-Methyl-1H-pyrazol-4-yl)-phenyl]-pyrimidin-5-yl}-pyrazol-1-yl)-dihydro-furan-2-one]: the IC50 is 100 to 1000 nM. Then `Cn1cc(-c2cccc(-c3ncc(-c4cnn(C[C@H]5CCCN5)c4)cn3)c2)cn1` [Example 71, 2-[3-(1-Methyl-1H-pyrazol-4-yl)-phenyl]-5-(1-(R)-1-pyrrolidin-2-ylmethyl-1H-pyrazol-4-yl)-pyrimidine hydrochloride], with 1000 to 5000 nM; and `CC(C)CNC(=O)[C@H]1CC[C@H](n2cc(-c3cnc(-c4cccc(-c5cnn(C)c5)c4)nc3)cn2)CC1` [Example 173, Trans-4-(4-{2-[3-(1-Methyl-1H-pyrazol-4-yl)-phenyl]-pyrimidin-5-yl}-pyrazol-1-yl)-cyclohexanecarboxylic acid isobutyl-amide], with less than 100 nM.

For `Cn1cc(-c2cccc(-c3ncc(-c4cnn([C@H]5CC[C@H](C(N)=O)CC5)c4)cn3)c2)cn1` [Example 206, Trans-4-(4-{2-[3-(1-Methyl-1H-pyrazol-4-yl)-phenyl]-pyrimidin-5-yl}-pyrazol-1-yl)-cyclohexanecarboxylic acid amide], the IC50 was less than 100 nM. Then `CC(C)n1cc(-c2cccc(-c3ncc(-c4cnn(C5CCNCC5)c4)cn3)c2)cn1` [Example 20, 2-[3-(1-Isopropyl-1H-pyrazol-4-yl)-phenyl]-5-(1-piperidin-4-yl-1H-pyrazol-4-yl)-pyrimidine hydrochloride], with 100 to 1000 nM.
